Each structure is given as a SMILES string.

By melting point is commonly meant the temperature, or range, at which the solid turns liquid. Consider `CC1CCN(c2nn3ccnc3c3c2CCCC3)CC1`, for which the melting point was 95 to 95.5 °C.
Regarding `C#Cc1cccc(Oc2nc(Cl)nc(Oc3cccc(C#C)c3)n2)c1`, the melting point was 121 to 125 °C.
In turn, `COC(CN(C)c1nccc(Oc2ccc(NC(=O)c3cc(F)cc(N4CCCCC4)c3)c3ccccc23)n1)OC` came in with a melting point of 135 to 136 °C.
`N#Cc1cccc2[nH]c(C(=O)O)cc(=O)c12` returned a melting point of 278 to 279 °C.
Then `CC1(C)N=C(n2ccccc2=O)c2cc(C#N)ccc2O1`, with 115 to 116 °C; and `Cc1cc2c(-c3ccccc3Cl)c(NC(=O)Nc3cccc(C(F)(F)F)c3)c(=O)n(C)c2cc1C`, with 175 to 176 °C; and `Cc1nc[nH]c1CSCCNC(=N)NS(N)(=O)=O`, with 130 to 133 °C.
The result for `Nc1ccc(C(c2ccccc2)(c2ccc(N)cc2)C(F)(F)F)cc1` reads 217 to 218 °C; that for `N#Cc1ccccc1C(C#N)c1ccc(F)cc1` (stereo unspecified), 87 to 89 °C; that for `Cc1ccc(S(=O)(=O)N(C)c2ccccc2[N+](=O)[O-])cc1`, 132 °C.
Then `COc1ccc(OCC(=O)N[C@@H](Cc2ccccc2)C(=O)CSCc2ccsc2)cc1`, with 80 to 81 °C; and `COc1c(C)cc(Cc2ccc3c(c2)OCO3)cc1C`, with 49 °C.
For `O=C1CCc2cc(C(=O)[C@H]3CC[C@H]3C(=O)O)ccc2N1` (relative stereo), the melting point was 155 to 158 °C.
The result for `Cn1c(=O)c(-c2ccc(Cl)cc2Cl)cc2c3cc(-c4nc(CN5CCCC5)cs4)ccc3n(C)c21` reads 222 to 226 °C.
Then `CN(C)c1ccc2c(c1)NC(=O)CC2`, with 154 to 156 °C; and `N#Cc1ccc(C(=O)NC(=S)NCCc2ccccc2)cc1`, with 142 to 144 °C; and `CC(C)(C)c1c(Cl)nc(OCc2ccccc2)nc1OCc1ccccc1`, with 96 °C.
Turning to `O=c1c(-c2cccs2)nc2ccccc2n1CC1CCCO1` (stereo unspecified), the melting point was found to be 123 °C.
Then `CC(=O)Nc1ccc(OC(C)=O)c(C)c1C`, with 155 to 156 °C; and `CCCCN(CCCC)c1ccc(C=Cc2ccc(C=CC3=C(C#N)C(=C(C#N)C#N)OC3(C)C(F)(F)F)s2)c(OCc2ccccc2)c1` (stereo unspecified), with 184 to 185 °C.
Then `CN(C)S(=O)(=O)N(c1ccc(C(=O)Nc2ccc(Br)cc2)cc1)C1OC(=O)c2ccccc21` (stereo unspecified), with 244 to 246 °C; and `CCOC(=O)c1c(C(F)F)nc(C(F)(F)F)c(C(=O)OC)c1NC(C)C`, with 37 to 39 °C.
For the compound `OCCCc1ccccc1N(Cc1ccccc1)Cc1ccccc1`, the melting point is 71.5 to 73 °C.
The result for `Cn1c(CO)cnc1[N+](=O)[O-]` reads 142 to 144 °C.
With `COc1ccc(OC2SCC(O)C(O)C2O)cn1` (stereo unspecified), the melting point was in the range of 159 to 161 °C.
As to `Cn1nc(-c2ncc(N)nc2-c2ccccc2)ccc1=O`, the melting point fell in the range of 202 to 204 °C.
Turning to `CC(C)c1nc(C(C)C)c(CNC2CC2)c(-c2ccc(F)cc2)c1CO`, the melting point lay in the range of 81 to 83 °C.
Then `C#CCOc1cc(C=O)cc(Cl)c1OCC#C`, with 64 to 65 °C.
The result for `CCCCCC(=O)n1c(=O)n(-c2ccc(OC)cc2)c(=O)n1C(=O)CCCCC` reads 88 to 90 °C.
The result for `CNC(=O)CC1CN=C(c2cc3cc(Oc4ccc(S(C)(=O)=O)nc4)c(F)c(OCCOC)c3[nH]2)S1` (stereo unspecified) reads 151 to 152 °C.
`N#Cc1ccc(N2C(=O)N(CCCC(=O)O)C3(CCSCC3)C2=O)cc1C(F)(F)F` displayed a melting point of 197 to 198 °C.
Then `O=C(O)c1ccc2c(c1)S(=O)c1ccccc1O2` (stereo unspecified), with 223 °C; and `Cc1cc(Cl)ccc1C(=O)NN(CCF)CCF`, with 85 to 87 °C; and `Nc1ccccc1CNC(=O)C1Cc2ccccc2N1S(=O)(=O)c1ccc(-c2ccc(F)cc2Cl)cc1` (stereo unspecified), with 85 to 90 °C.
Regarding `ON=Cc1ccc(Sc2ccccc2)cc1`, the melting point is 74 to 76 °C.
With `CCOC(=O)c1ccc(C=CC2(O)CN3CCC2CC3)cc1` (stereo unspecified), the melting point was in the range of 160 to 162 °C.
In the case of `C=CCc1ccccc1OC[C@@H](O)CNCCc1ccc(NC2CCN(S(=O)(=O)c3ccc(N(CCCCCC)C(N)=O)cc3)CC2)cc1`, the melting point lay within 68 to 70 °C.
As to `OCCC=Cc1ccc(-c2ccccc2)cc1`, the melting point is 142 °C.
With `CCOC(=O)c1[nH]c(SCC)nc1C(C)(C)O`, the melting point fell in the range of 82 to 85 °C.
`Cc1cc(O)c2c(c1O)C(=O)c1ccccc1C2=O` showed a melting point of 177 to 178 °C.
Then `COc1cc2nc(-c3cccs3)cc(C(=O)O)c2cc1OC`, with 260 to 263 °C; and `Clc1ccc(C=CC=Cc2ccccc2)cc1`, with 161 °C.
The result for `Nc1c(CCO)cc(Cl)cc1C(O)c1ccccc1` (stereo unspecified) reads 130 to 132 °C.
Then `O=C1OCCC1Oc1ccc(C(F)(F)F)cc1[N+](=O)[O-]` (stereo unspecified), with 128 to 129 °C; and `CC(C)C[C@H](CC(N)=O)CC(=O)O`, with 132 to 135 °C; and `CC(C)c1cc(Cl)nc(C(C)C)c1N`, with 53 to 56 °C.
`OCCN1CCN(C2=Nc3ccccc3Sc3ccccc32)CC1`: the melting point fell in the range of 57 to 60 °C.
Then `CCCCc1ccc(NC(=O)c2ccccc2C(c2ccc(O)cc2)c2ccc(O)cc2)cc1`, with 119 to 121 °C; and `CS(=O)(=O)c1ccc(-c2nc(C(F)(F)F)nc(Cl)c2-c2ccccc2)cc1`, with 156 to 159 °C.
Then `O=C(O)Cc1ccc2onc(-c3ccc(Cl)cc3)c2c1`, with 189 °C; and `CNC(=O)c1ccccc1Nc1nc(Nc2cccc3c2N(C)CCN(C)C3=O)ncc1Cl`, with 243 to 244 °C.
Then `O=C(O)CCC1COc2ccccc2O1` (stereo unspecified), with 102 °C; and `CN1C(=O)CCC1(O)c1ccc(Cl)c(S(N)(=O)=O)c1` (stereo unspecified), with 147 to 149 °C.
The compound `O=C(Nc1ccccc1)N1C(=O)[C@H](O)[C@@H]1c1ccccc1` yielded a melting point of 197 to 200 °C.
The result for `CCCCCCC(=N)NC(=S)Nc1ccc(Br)cc1` reads 112 to 113 °C.
In turn, `O=C1NCCNN1c1cc(Cl)c(Sc2ccc(Cl)cc2)c(Cl)c1` registered a melting point of 242 to 243 °C.
The result for `Fc1ccc2[nH]cc(CC3CCN(CC4COc5ccc6ncccc6c5O4)CC3)c2c1` (stereo unspecified) reads 184 °C; that for `CCOC(=O)c1cnc2c3cc(OC)ccc3ccn2c1=O`, 184 to 186 °C.
Then `CCn1cc2c(n1)c(N)nc1ccccc12`, with 240 to 241 °C.
Then `CC1COCc2nc3c(N)nc4cc(CCC(=O)N(C)C)ccc4c3n21` (stereo unspecified), with 235 to 237 °C.
`COC(=O)C1=C(C(=O)OC)c2c([nH]c3ccccc23)CC1` gave a melting point of 249 °C.
`COc1ccc(CNc2nc(-c3ccc(C(=O)O)cc3)nc3sc(C(F)(F)F)cc23)cc1OC` yielded a melting point of 250 °C.
Take `CCCn1c(COC)nc2c(N)nc3ccc(OCCCN4CCN(c5ccccn5)CC4)cc3c21`: the melting point lay in the range of 196 to 197 °C.
The compound `c1ccc(C[C@@H]2CN3C(c4nnn[nH]4)=Nc4nc(C5CCCC5)[nH]c4C3=N2)cc1` had a melting point of 268 to 270 °C.
`COc1cc(NC(=O)CCCCCN2CCNCC2)c2nccc(C)c2c1` had a melting point of 122 to 124 °C.
Then `O=C(O)c1[nH]c2ccc(Cl)cc2c1S(=O)c1ccccc1` (stereo unspecified), with 183 to 185 °C.
The result for `Cc1c(O)cc(N2C(=O)c3ccccc3C2=O)cc1C(=O)OCc1ccc([N+](=O)[O-])cc1` reads 210 to 244 °C.
For the compound `CC1(C)CN(c2ncc(C(=O)O)c(N)n2)C(=O)N1`, the melting point fell in the range of 290 to 291 °C.
The result for `CC(C)c1nc(CN=[N+]=[N-])n(Cc2cccnc2)c1Sc1cc(Cl)cc(Cl)c1` reads 99 to 103 °C; that for `Cn1cc(C(=O)CCn2ccnc2)c2ccccc21`, 121 to 123 °C; that for `CCCN[C@@H](Cc1ccc(OCCNC(=O)c2ccc(-c3ccccn3)cc2)cc1)C(=O)O`, 242 to 244 °C.
`C(=C\c1nc2ccccc2n1-c1cccnc1)/c1ccccc1`: the melting point came out at 118 °C.
Then `C[Si](C)(C)c1cc(Cl)sc1C(=O)NCCO`, with 110 to 114 °C.
The result for `Nc1ccc(F)c(-c2cncnc2)c1F` reads 141 to 143 °C.
Regarding `CN1C(=O)[C@@H](NC(=O)C(C)(C)C)N=C(c2ccccc2)c2ccccc21`, the melting point fell in the range of 85 to 94 °C.
Compound `COc1ccc(-c2cn3c(n2)CCC3)cc1` yielded a melting point of 116 to 118 °C.
`CCOC(=O)C(Cc1ccccc1CCCBr)(NC(C)=O)C(=O)OCC` yielded a melting point of 73 to 74.5 °C.
On to `Cn1nc2c(N)nc3ncccc3c2c1CC(C)(C)C`, for which the melting point was in the range of 323 to 326 °C.
Then `COc1ccc(CC(=O)c2ccc(OC)cc2O)cc1`, with 101 to 102 °C; and `CS(=O)(=O)c1ccc(-c2sc(N3CCCCC3)nc2-c2ccc(F)cc2)cc1`, with 173 to 175 °C.
The compound `CCN1CN=C2SCC(O)(c3ccc(Br)cc3)N2C1` (stereo unspecified) had a melting point of 132 to 134 °C.
In turn, `CCCCCC1CCc2c3c(c(F)c(F)c2O1)OC(C)C3` (stereo unspecified) showed a melting point of 76 °C.
Then `CC(C)(O)C(=O)CC(=O)c1ccc(C(=O)CC(=O)C(C)(C)O)cc1`, with 276 to 278 °C; and `CCOc1ccc(/C=C/c2nc3c(c(=O)n(CC)c(=O)n3CC)n2C)cc1`, with 185 to 186 °C.
For the compound `CCOC(=O)Cc1ccccc1N[C@@H](CCC(N)=O)C(=O)O`, the melting point lay within 171 to 172 °C.
The result for `CC(C)Nc1cccnc1N1CCN(C(=O)c2ccc(C(=O)N[C@H](CO)CC3CCCCC3)cc2)CC1` reads 139 to 140 °C; that for `CCc1cc(Nc2cc(Cl)c(C(F)(F)F)cc2[N+](=O)[O-])c(OC)cc1OC`, 161 to 162 °C; that for `Cc1ccc(-c2cc(-c3ccc(O)c(F)c3)nc3ccc(O)cc23)cc1`, 184 to 188 °C.
The result for `CCOC(=O)c1cnn(-c2cc(Cl)cc(Cl)c2)c1C#N` reads 101 to 103 °C; that for `COCCOc1cc(N(C)S(=O)(=O)c2cccs2)c2[nH]c(C3=NCC(CC(=O)O)S3)cc2c1` (stereo unspecified), 113 to 114 °C; that for `CN1C(=O)[C@H](NC(=O)CCc2ccc(Cl)cc2Cl)N=C(c2ccccc2)c2cc(NS(C)(=O)=O)ccc21`, 130 to 148 °C.

The values above are taken from a melting point compilation (Tetko et al.; mined from patent text by program, amines drawn as free bases though some values may be those of a salt).
